The results in this text go back to US20120289524A1, “PYRROLO [3,2-E] [1,2,4] TRIAZOLO [1,5-A] PYRIMIDINES DERIVATIVES AS INHIBITORS OF MICROGLIA ACTIVATION” (Senexis Limited, priority 2009, published 2012).

Data set [1] can be described thus: Pharmacokinetic data. The note with it: in vivo; for bioavailability: oral.
Data set [2] concerns Mouse BALB/c monocyte macrophages, J774.2. Description: Inhibition of β-amyloid induced activation: TNF-alpha release (ELISA / Meso Scale Discovery). It counts as cell-based. The note with it: J774.2 cells, 20 μM Aβ(1-42), 50 U/ml Interferon gamma, 24 hours, read-out: IC50 (μM) TNF-α release. As to the method: (§1) 1. Inhibition of β-amyloid Induced Activation.
(§2) Mouse BALB/c monocyte macrophages, J774.2, {ECACC 85011428} were grown and sub-cultured in cell media (DMEM containing 10% FBS, 1% L-glutamine and 1% penicillin/streptomycin). The J774 cells were plated at 100,000 cells/well in 50 μl cell media on 96 well plates and placed in a 37° C., 5% CO2 incubator overnight prior to experiments.
(§3) The addition of Aβ(1-42) and compounds to the J774 cells was performed using a Biotek precision 2000 liquid handling instrument. 3 μl of compound in DMSO ranging from 8 μM to 6 mM were pipetted into a “daughter plate” containing 294 μl of cell media and mixed thoroughly. 3 μl of Aβ(1-42) in DMSO at 4 mM was then added to the “daughter plate” and mixed thoroughly. 50 μl was then removed from the “daughter plate” and added to the plated J774 cells. The final concentrations in the wells containing 100 μl cell media were 20 μM Aβ(1-42), the compounds ranged from ˜40 nM to 30 μM in 1% DMSO and also in the presence of 50 U/ml Interferon gamma. The plates were incubated for 24 hours in a 37° C., 5% CO2 incubator. After 24 hours incubation the media from the wells were collected and stored at −20° C. until required for testing.
The TNF-alpha levels in the media were tested using a TNF-alpha ELISA (R&D Systems MTA00) or Meso Scale Discovery MS6000 Mouse Proinflammatory-7 kit, using the manufacturers instructions.
Background: ELISA stands for enzyme-linked immunosorbent assay.

Data set [3] has the same test system. Description: Inhibition of β-amyloid induced activation: nitric oxide release (Griess assay). It counts as cell-based. The note with it: J774.2 cells, 20 μM Aβ(1-42), 50 U/ml Interferon gamma, 24 hours, read-out: IC50 (μM) NO release. As to the method:
as §1, §2, §3
The nitric oxide levels in the media were tested using the Griess assay (Promega G2930) using the manufacturer's instructions.
(The Griess reaction detects nitrite, a stable product of nitric oxide.)

Setting [4] is: iv, read-out: T1/2 i.v. (converted).
[5] abbreviates: per oral, read-out: T1/2 per oral (converted).

By bioavailability is commonly meant dose-corrected exposure relative to a reference, in per cent. Higher therefore signals good availability. Usually IC50 stands for the midpoint of a concentration-inhibition curve.

Molecules are shown by their SMILES. Like-named read-outs stand apart in the source and are kept apart here.

As for `Cc1nc2ncnn2c2c1CCN2[C@@H](C)c1ccccc1` [reference compound], the half-life in data set [1] (setting [4]) was 0.22 h; in data set [1] (setting [5]), 2.4 h. The molecule further displayed a bioavailability in data set [1] of 34.5%.

`Cc1nc2ncnn2c2c1CCN2[C@H](C)c1ccccc1` [Compound 4, reference compound]: the IC50 in data set [2] was above 30 µM.

For `Cc1nc2ncnn2c2c1CCN2[C@@H](C)c1ccc(F)cc1` [Compound 1], the IC50 turned out to be 0.48 µM in data set [2] and 0.24 µM in data set [3]. Also, the half-life in data set [1] (setting [4]) was 0.87 h; in data set [1] (setting [5]) it was 3.2 h. Moreover, the bioavailability in data set [1] turned out to be 98.5%.
